Assay results reported in ChEMBL document CHEMBL3632505, “Forsythoneosides A-D, Neuroprotective Phenethanoid and Flavone Glycoside Heterodimers from the Fruits of Forsythia suspensa” (2015).

Tests used:
PC-12 [1] = experiment: Neuroprotective activity against rotenone-induced cell damage in rat PC12 cells assessed as cell viability at 0.1 uM after 48 hrs by MTT assay (reference value: 53.9 +/- 7.1%); assay type: functional; conditions: for viability at 0.1 µM: Rattus norvegicus, PC-12, 48 h, read-out: Activity
PC-12 [2] = experiment: Neuroprotective activity against rotenone-induced cell damage in rat PC12 cells assessed as cell viability at 1 uM after 48 hrs by MTT assay (reference value: 53.9 +/- 7.1%); assay type: functional; conditions: for viability at 1 µM: Rattus norvegicus, PC-12, 48 h, read-out: Activity
PC-12 [3] = experiment: Neuroprotective activity against rotenone-induced cell damage in rat PC12 cells assessed as increase in cell viability after 48 hrs by MTT assay; assay type: functional, cell-based
PC-12 [4] = experiment: Neuroprotective activity against rotenone-induced cell damage in rat PC12 cells assessed as cell viability at 10 uM after 48 hrs by MTT assay (reference value: 53.9 +/- 7.1%); assay type: functional; conditions: for viability at 10 µM: Rattus norvegicus, PC-12, 48 h, read-out: Activity

Compound | viability at 0.1 µM (PC-12 [1]) [%] | viability at 1 µM (PC-12 [2]) [%] | Activity (PC-12 [3]) | viability at 10 µM (PC-12 [4]) [%] | also measured
C[C@@H]1O[C@@H](OC[C@H]2O[C@@H](Oc3c(-c4ccc(O)c(O)c4)oc4c5c(cc(O)c4c3=O)Oc3cc(O)c(O)cc3[C@H]5CO[C@@H]3O[C@H](CO[C@@H]4O[C@@H](C)[C@H](O)[C@@H](O)[C@H]4O)[C@@H](OC(=O)/C=C/c4ccc(O)c(O)c4)[C@H](O)[C@H]3O)[C@H](O)[C@@H](O)[C@@H]2O)[C@H](O)[C@H](O)[C@H]1O | 55.8 | 59.2 | Dose-dependent effect | 81.1 | 
C[C@@H]1O[C@@H](OC[C@H]2O[C@@H](Oc3c(-c4ccc(O)c(O)c4)oc4c5c(cc(O)c4c3=O)Oc3cc(O)c(O)cc3[C@@H]5CO[C@@H]3O[C@H](CO[C@@H]4O[C@@H](C)[C@H](O)[C@@H](O)[C@H]4O)[C@@H](OC(=O)/C=C/c4ccc(O)c(O)c4)[C@H](O)[C@H]3O)[C@H](O)[C@@H](O)[C@@H]2O)[C@H](O)[C@H](O)[C@H]1O | 70.1 | 75 | Dose-dependent effect | 91.2 | 
O=C(/C=C/c1ccc(O)c(O)c1)O[C@H]1[C@H](O)[C@@H](O)[C@H](OCCc2ccc(O)c(O)c2)O[C@@H]1CO[C@@H]1OC[C@@H](O)[C@H](O)[C@H]1O |  |  |  | 56.2 | 
C[C@@H]1O[C@@H](OC[C@H]2O[C@@H](Oc3c(-c4ccc(O)c(O)c4)oc4c(-c5cc(O)c(O)cc5CCO[C@@H]5O[C@H](CO[C@@H]6O[C@@H](C)[C@H](O)[C@@H](O)[C@H]6O)[C@@H](OC(=O)/C=C/c6ccc(O)c(O)c6)[C@H](O)[C@H]5O)c(O)cc(O)c4c3=O)[C@H](O)[C@@H](O)[C@@H]2O)[C@H](O)[C@H](O)[C@H]1O (stereo in doubt; 3) [listing 1 of 2 here] | 54.3 | 64 |  |  | Activity (PC-12 [4]): 93.2%
C[C@@H]1O[C@@H](OC[C@H]2O[C@@H](Oc3c(-c4ccc(O)c(O)c4)oc4c(-c5cc(O)c(O)cc5CCO[C@@H]5O[C@H](CO[C@@H]6O[C@@H](C)[C@H](O)[C@@H](O)[C@H]6O)[C@@H](OC(=O)/C=C/c6ccc(O)c(O)c6)[C@H](O)[C@H]5O)c(O)cc(O)c4c3=O)[C@H](O)[C@@H](O)[C@@H]2O)[C@H](O)[C@H](O)[C@H]1O (stereo in doubt; 3) [listing 2 of 2 here] |  |  | Dose-dependent effect |  | 
C[C@@H]1O[C@@H](OC[C@H]2O[C@@H](Oc3c(-c4ccc(O)c(O)c4)oc4c(-c5cc(O)c(O)cc5CCO[C@@H]5O[C@H](CO[C@@H]6O[C@@H](C)[C@H](O)[C@@H](O)[C@H]6O)[C@@H](OC(=O)/C=C/c6ccc(O)c(O)c6)[C@H](O)[C@H]5O)c(O)cc(O)c4c3=O)[C@H](O)[C@@H](O)[C@@H]2O)[C@H](O)[C@H](O)[C@H]1O (stereo in doubt; 4) [listing 1 of 2 here] |  |  |  | 96.2 | Activity (PC-12 [1]): 67.9%; Activity (PC-12 [2]): 75.5%
C[C@@H]1O[C@@H](OC[C@H]2O[C@@H](Oc3c(-c4ccc(O)c(O)c4)oc4c(-c5cc(O)c(O)cc5CCO[C@@H]5O[C@H](CO[C@@H]6O[C@@H](C)[C@H](O)[C@@H](O)[C@H]6O)[C@@H](OC(=O)/C=C/c6ccc(O)c(O)c6)[C@H](O)[C@H]5O)c(O)cc(O)c4c3=O)[C@H](O)[C@@H](O)[C@@H]2O)[C@H](O)[C@H](O)[C@H]1O (stereo in doubt; 4) [listing 2 of 2 here] |  |  | Dose-dependent effect |  | 
C[C@@H]1O[C@@H](OC[C@H]2O[C@@H](OCCc3ccc(O)c(O)c3)[C@H](O)[C@@H](O)[C@@H]2OC(=O)/C=C/c2ccc(O)c(O)c2)[C@H](O)[C@H](O)[C@H]1O [FORSYTHIASIDE] |  |  |  | 60.4 | 
C[C@@H]1O[C@@H](OC[C@H]2O[C@@H](Oc3c(-c4ccc(O)c(O)c4)oc4cc(O)cc(O)c4c3=O)[C@H](O)[C@@H](O)[C@@H]2O)[C@H](O)[C@H](O)[C@H]1O [RUTIN] |  |  |  | 67.9 | 
COC1=C(OC)C(=O)C(C/C=C(\C)CC/C=C(\C)CC/C=C(\C)CC/C=C(\C)CC/C=C(\C)CC/C=C(\C)CC/C=C(\C)CC/C=C(\C)CC/C=C(\C)CCC=C(C)C)=C(C)C1=O [UBIDECARENONE] |  |  |  | 59 | 
